In patent publication US20260013501A1, “HERBICIDAL DERIVATIVES” (SYNGENTA CROP PROTECTION AG, priority 2022, published 2026):

Experiments:
Assay type in all cases: in vivo
[1] = test system: Ipomoea hederacea (IPOHE); assay: Pre-emergence Test (Table B1), IPOHE; details: evaluated after 13 days
[2] = test system: Amaranthus retoflexus (AMARE); assay: Pre-emergence Test (Table B1), AMARE; details: evaluated after 13 days
Setaria faberi (SETFA) = assay: Pre-emergence Test (Table B1), SETFA; details: evaluated after 13 days
Zea mays (ZEAMX) [3] = assay: Pre-emergence Test (Table B1), ZEAMX; details: evaluated after 13 days
[4] = test system: Ipomoea hederacea (IPOHE); assay: Post-emergence Test (Table B2), IPOHE; design: key: five-point scale: 5=81-100%, 4=61-80%, 3=41-60%, 2=21-40%, 1=0-20% damage; details: evaluated after 13 days
Protocol: (§1) Seeds of a variety of test species are sown in standard soil in pots (Ipomoea hederacea (IPOHE), Zea mays (ZEAMX), Echinochloa crus-galli (ECHCG), Amaranthus palmeri (AMAPA), (Amaranthus retoflexus (AMARE), and (Setaria faberi (SETFA)). After 8 days cultivation under controlled conditions in a glasshouse (at 24° C./16° C., day/night; 14 hours light; 65% humidity), the plants are sprayed with an aqueous spray solution derived from the formulation of the technical active ingredient in acetone/water (50:50) solution containing 0.5% Tween 20 (polyoxyethelyene sorbitan monolaurate, CAS RN 9005-64-5). Rate of application is shown in g/ha in the tables below. The test plants are then grown in a glasshouse under controlled conditions in a glasshouse (at 24° C./16° C., day/night; 14 hours light; 65% humidity) and watered twice daily. After 13 days the test is evaluated for the percentage damage caused to the plant. The biological activities are shown in the following table on a five-point scale (5=81-100%; 4=61-80%; 3=41-60%; 2=21-40%; 1=0-20%; -=not tested).

Zea mays (ZEAMX) [5] = assay: Post-emergence Test (Table B2), ZEAMX; design: key: 5-point damage scale: 5=81-100%, 4=61-80%, 3=41-60%, 2=21-40%, 1=0-20%; details: evaluated after 13 days
Summary of the method: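 Score: % damage at 13 d on a 5-point scale (5=81-100%; 4=61-80%; 3=41-60%; 2=21-40%; 1=0-20%). Seeds sown in pots, sprayed with test article in acetone/water 50:50 + 0.5% Tween 20; rate in g/ha. Glasshouse 24/16 °C, 14 h light, 65% RH, watered twice daily.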

[6] = test system: Echinochloa crus-galli (ECHCG); assay: Post-emergence Test (Table B2), ECHCG; design: key: 5-point damage scale: 5=81-100%, 4=61-80%, 3=41-60%, 2=21-40%, 1=0-20%; details: evaluated after 13 days
Protocol: as §1

[7] = test system: Echinochloa crus-galli (ECHCG); assay: Pre-emergence Test (Table B1), ECHCG; details: evaluated after 13 days
[8] = test system: Amaranthus palmeri (AMAPA); assay: Pre-emergence Test (Table B1), AMAPA; details: evaluated after 13 days
[9] = test system: Amaranthus palmeri (AMAPA); assay: Post-emergence Test (Table B2), AMAPA; design: key: five-point scale: 5=81-100%, 4=61-80%, 3=41-60%, 2=21-40%, 1=0-20% damage; details: rate 250 g/Ha, evaluated after 13 days
Protocol: as §1

CCn1c(Cc2cnc3ccccc3n2)cc(=O)c(C(=O)O)c1-c1ccc(Cl)c(Cl)c1 [Compound 145, 2-(3,4-dichlorophenyl)-1-ethyl-4-oxo-6-(quinoxalin-2-ylmethyl)pyridine-3-carboxylic acid]
0: Pre-emergence Test, percentage damage caused to the plant (five-point scale), IPOHE ([1]; Rate 250 g/Ha) | Pre-emergence Test, percentage damage caused to the plant (five-point scale), AMARE ([2]; Rate 250 g/Ha) | Pre-emergence Test, percentage damage caused to the plant (five-point scale), SETFA (Setaria faberi (SETFA); Rate 250 g/Ha) | Pre-emergence Test, percentage damage caused to the plant (five-point scale), ZEAMX (Zea mays (ZEAMX) [3]; Rate 250 g/Ha)

CCn1c(Cc2cccc(OC)n2)cc(=O)c(C(=O)O)c1-c1ccc(Cl)c(Cl)c1 [Compound 60, 2-(3,4-dichlorophenyl)-1-ethyl-6-[(6-methoxy-2-pyridyl)methyl]-4-oxo-pyridine-3-carboxylic acid]
0: Pre-emergence Test, percentage damage caused to the plant (five-point scale), SETFA (Setaria faberi (SETFA); Rate 250 g/Ha) | Pre-emergence Test, percentage damage caused to the plant (five-point scale), ZEAMX (Zea mays (ZEAMX) [3]; Rate 250 g/Ha)

CCn1c(Cc2cccc(C(C)C)c2)cc(=O)c(C(=O)O)c1-c1ccc(Cl)c(Cl)c1 [Compound 23, 2-(3,4-dichlorophenyl)-1-ethyl-6-[(3-isopropylphenyl)methyl]-4-oxo-pyridine-3-carboxylic acid]
0: percentage damage caused to the plant, IPOHE ([4]; rate 1000 g/Ha) | percentage damage caused to the plant, ZEAMX (Zea mays (ZEAMX) [5]; rate 1000 g/Ha) | percentage damage caused to the plant, ECHCG ([6]; rate 1000 g/Ha)

CCn1c(Cc2ccn[nH]c2=O)cc(=O)c(C(=O)O)c1-c1ccc(Cl)c(Cl)c1 [Compound 142, 2-(3,4-dichlorophenyl)-1-ethyl-4-oxo-6-[(6-oxo-1H-pyridazin-5-yl)methyl]pyridine-3-carboxylic acid]
0: Pre-emergence Test, percentage damage caused to the plant (five-point scale), ECHCG ([7]; Rate 250 g/Ha) | Pre-emergence Test, percentage damage caused to the plant (five-point scale), SETFA (Setaria faberi (SETFA); Rate 250 g/Ha) | Pre-emergence Test, percentage damage caused to the plant (five-point scale), ZEAMX (Zea mays (ZEAMX) [3]; Rate 250 g/Ha)

CCn1c(Cc2ccc(Cl)cc2F)cc(=O)c(C(=O)O)c1-c1ccc(Cl)c(Cl)c1 [Compound 79, 6-[(4-chloro-2-fluoro-phenyl)methyl]-2-(3,4-dichlorophenyl)-1-ethyl-4-oxo-pyridine-3-carboxylic acid]
0: Pre-emergence Test, percentage damage caused to the plant (five-point scale), IPOHE ([1]; Rate 1000 g/Ha) | Pre-emergence Test, percentage damage caused to the plant (five-point scale), ECHCG ([7]; Rate 1000 g/Ha) | Pre-emergence Test, percentage damage caused to the plant (five-point scale), AMAPA ([8]; Rate 1000 g/Ha) | Pre-emergence Test, percentage damage caused to the plant (five-point scale), AMARE ([2]; Rate 1000 g/Ha) | Pre-emergence Test, percentage damage caused to the plant (five-point scale), SETFA (Setaria faberi (SETFA); Rate 1000 g/Ha) | Pre-emergence Test, percentage damage caused to the plant (five-point scale), ZEAMX (Zea mays (ZEAMX) [3]; Rate 1000 g/Ha)

CCn1c(Cc2ccc(C3CC3)cc2)cc(=O)c(C(=O)O)c1-c1ccc(Cl)c(Cl)c1 [Compound 25, 6-[(4-cyclopropylphenyl)meth-yl]-2-(3,4-dichlorophenyl)-1-ethyl-4-oxo-pyridine-3-carboxylic acid]
0: percentage damage caused to the plant, IPOHE ([4]; rate 1000 g/Ha) | percentage damage caused to the plant, ECHCG ([6]; rate 1000 g/Ha)

CCn1c(Cc2cccc(Cl)n2)cc(=O)c(C(=O)O)c1-c1ccc(OC(C)C)c(Cl)c1 [Compound 132, 2-(3-chloro-4-isopropoxy-phenyl)-6-[(6-chloro-2-pyridyl)methyl]-1-ethyl-4-oxo-pyridine-3-carboxylic acid]
0: percentage damage caused to the plant, AMAPA [9] | Pre-emergence Test, percentage damage caused to the plant (five-point scale), IPOHE ([1]; Rate 250 g/Ha) | Pre-emergence Test, percentage damage caused to the plant (five-point scale), ECHCG ([7]; Rate 250 g/Ha) | Pre-emergence Test, percentage damage caused to the plant (five-point scale), AMARE ([2]; Rate 250 g/Ha) | Pre-emergence Test, percentage damage caused to the plant (five-point scale), ZEAMX (Zea mays (ZEAMX) [3]; Rate 250 g/Ha) | percentage damage caused to the plant, IPOHE ([4]; rate 250 g/Ha)

CCn1c(Cc2ccc(Cl)cc2)cc(=O)c(C(=O)O)c1-c1ccc(Cl)c(Cl)c1 [Compound 7, 6-[(4-chlorophenyl)methyl]-2-(3,4-dichlorophenyl)-1-ethyl-4-oxo-pyridine-3-carboxylic acid]
0: Pre-emergence Test, percentage damage caused to the plant (five-point scale), IPOHE ([1]; Rate 1000 g/Ha) | Pre-emergence Test, percentage damage caused to the plant (five-point scale), ECHCG ([7]; Rate 1000 g/Ha) | Pre-emergence Test, percentage damage caused to the plant (five-point scale), AMARE ([2]; Rate 1000 g/Ha) | Pre-emergence Test, percentage damage caused to the plant (five-point scale), SETFA (Setaria faberi (SETFA); Rate 1000 g/Ha) | Pre-emergence Test, percentage damage caused to the plant (five-point scale), ZEAMX (Zea mays (ZEAMX) [3]; Rate 1000 g/Ha)

CCn1c(Cc2ccc(C)nn2)cc(=O)c(C(=O)O)c1-c1ccc(Cl)c(Cl)c1 [Compound 139, 2-(3,4-dichlorophenyl)-1-ethyl-6-[(6-methylpyridazin-3-yl)methyl]-4-oxo-pyridine-3-carboxylic acid]
0: Pre-emergence Test, percentage damage caused to the plant (five-point scale), SETFA (Setaria faberi (SETFA); Rate 250 g/Ha) | percentage damage caused to the plant, ZEAMX (Zea mays (ZEAMX) [5]; rate 250 g/Ha) | percentage damage caused to the plant, ECHCG ([6]; rate 250 g/Ha)

CCn1c(Cc2ccccc2OC)cc(=O)c(C(=O)O)c1-c1ccc(Cl)c(Cl)c1 [Compound 24, 2-(3,4-dichlorophenyl)-1-ethyl-6-[(2-methoxyphenyl)methyl]-4-oxo-pyridine-3-carboxylic acid]
0: percentage damage caused to the plant, IPOHE ([4]; rate 1000 g/Ha) | percentage damage caused to the plant, ZEAMX (Zea mays (ZEAMX) [5]; rate 1000 g/Ha) | percentage damage caused to the plant, ECHCG ([6]; rate 1000 g/Ha)

CCn1c(Cc2nccnc2Cl)cc(=O)c(C(=O)O)c1-c1ccc(Cl)c(Cl)c1 [Compound 144, 6-[(3-chloropyrazin-2-yl)methyl]-2-(3,4-dichlorophenyl)-1-ethyl-4-oxo-pyridine-3-carboxylic acid]
0: Pre-emergence Test, percentage damage caused to the plant (five-point scale), IPOHE ([1]; Rate 250 g/Ha) | Pre-emergence Test, percentage damage caused to the plant (five-point scale), ECHCG ([7]; Rate 250 g/Ha) | Pre-emergence Test, percentage damage caused to the plant (five-point scale), AMAPA ([8]; Rate 250 g/Ha) | Pre-emergence Test, percentage damage caused to the plant (five-point scale), SETFA (Setaria faberi (SETFA); Rate 250 g/Ha) | Pre-emergence Test, percentage damage caused to the plant (five-point scale), ZEAMX (Zea mays (ZEAMX) [3]; Rate 250 g/Ha)

CCn1c(Cc2ccc(F)c(C(=O)O)n2)cc(=O)c(C(=O)O)c1-c1ccc(Cl)c(Cl)c1 [Compound 98, 6-[(6-carboxy-5-fluoro-2-pyridyl)methyl]-2-(3,4-dichlorophenyl)-1-ehtyl-4-oxo-pyridine-3-carboxylic acid]
0: Pre-emergence Test, percentage damage caused to the plant (five-point scale), ZEAMX (Zea mays (ZEAMX) [3]; Rate 1000 g/Ha) | percentage damage caused to the plant, IPOHE ([4]; rate 1000 g/Ha) | percentage damage caused to the plant, ZEAMX (Zea mays (ZEAMX) [5]; rate 1000 g/Ha)

CCn1c(Cc2ccc(OC)c(OC)c2)cc(=O)c(C(=O)O)c1-c1ccc(Cl)c(Cl)c1 [Compound 34, 2-(3,4-dichlorophenyl)-6-[(3,4-dimethoxyphenyl)meth-yl]-1-ethyl-4-oxo-pyridine-3-carboxylic acid]
0: percentage damage caused to the plant, IPOHE ([4]; rate 1000 g/Ha) | percentage damage caused to the plant, ZEAMX (Zea mays (ZEAMX) [5]; rate 1000 g/Ha) | percentage damage caused to the plant, ECHCG ([6]; rate 1000 g/Ha)

CCn1c(Cc2cccc(SC)c2)cc(=O)c(C(=O)O)c1-c1ccc(Cl)c(Cl)c1 [Compound 31, 2-(3,4-dichlorophenyl)-1-ethyl-6-[(3-methylsulfanylphenyl)methyl]-4-oxo-pyridine-3-carboxylic acid]
0: percentage damage caused to the plant, IPOHE ([4]; rate 1000 g/Ha) | percentage damage caused to the plant, ZEAMX (Zea mays (ZEAMX) [5]; rate 1000 g/Ha) | percentage damage caused to the plant, ECHCG ([6]; rate 1000 g/Ha)

CCn1c(Cc2cc(O)cc(F)n2)cc(=O)c(C(=O)O)c1-c1ccc(Cl)c(Cl)c1 [Compound 104, 2-(3,4-dichlorophenyl)-1-ethyl-6-[(6-fluoro-4-hydroxy-2-pyridyl)methyl]-4-oxo-pyridine-3-carboxylic acid]
0: percentage damage caused to the plant, IPOHE ([4]; rate 1000 g/Ha)

CCn1c(Cc2cccc(OC)c2OC)cc(=O)c(C(=O)O)c1-c1ccc(Cl)c(Cl)c1 [Compound 38, 2-(3,4-dichlorophenyl)-6-[(2,3-dimethoxyphenyl)meth-yl]-1-ethyl-4-oxo-pyridine-3-carboxylic acid]
0: percentage damage caused to the plant, IPOHE ([4]; rate 1000 g/Ha) | percentage damage caused to the plant, ZEAMX (Zea mays (ZEAMX) [5]; rate 1000 g/Ha) | percentage damage caused to the plant, ECHCG ([6]; rate 1000 g/Ha)
